Results from patent US20070128217A1 (priority 2003, published 2007).

Key:
[1] = tested on: control sera (pooled serum of ten healthy LUMC hospital workers; commercial negative donor pooled serum from the Dutch bloodbank); format: binding, human; design: Binding of Control serum LUMC to linear peptides / Binding of Control serum Blood-bank to linear peptides / Binding of Control serum LUMC to looped peptides / Binding of Control Serum Blood-Bank to Looped peptides / Binding of Control serum LUMC to linear peptides of the protein M of SARS-CoV Urbani / Binding of Control serum Blood-bank to linear peptides of the protein M of SARS-CoV Urbani / Binding of Control serum LUMC to looped peptides of the protein M of SARS-CoV Urbani / Binding of Control Serum Blood-Bank to Looped peptides of the protein M of SARS-CoV Urbani: unit not given here
[2] = tested on: antibodies in sera from SARS patients (sera 1a, 1b, 2, 6, 37, 62, London, SARS-yellow, SARS-green); format: binding, human; design: Binding of serum 6 to linear peptides of protein X1 of SARS-CoV Urbani / Binding of serum 37 to linear peptides of protein X1 of SARS-CoV Urbani / Binding of serum 6 to looped/cyclic peptide (PEPSCAN-ELISA) / Binding of serum 37 to looped/cyclic peptide (PEPSCAN-ELISA) / Binding of serum 37 to looped/cyclic peptides of protein X1 of SARS-CoV Urbani / Binding of serum 6 to linear peptides of protein X2 / Binding of serum 37 to linear peptides of protein X2 / Binding of serum 37 to looped/cyclic peptides of protein X2 of SARS-CoV Urbani / Binding of serum 6 to linear peptides of protein M of SARS-CoV Urbani / Binding of serum 37 to linear peptides of protein M of SARS-CoV Urbani / Binding of serum 6 to looped/cyclic peptides of protein M of SARS-CoV Urbani / Binding of serum 37 to looped/cyclic peptides of protein M of SARS-CoV Urbani / Binding of serum 6 to linear peptides of protein X3 of SARS-CoV Urbani / Binding of serum 37 to linear peptides of protein X3 of SARS-CoV Urbani / Binding of serum 37 to looped/cyclic peptides of protein X3 of SARS-CoV Urbani / Binding of serum 6 to linear peptides of protein X4 of SARS-CoV Urbani / Binding of serum 37 to linear peptides of protein X4 of SARS-CoV Urbani / Binding of serum 37 to looped/cyclic peptides of protein X4 of SARS-CoV Urbani / Binding of serum 6 to linear peptides of protein X5 of SARS-CoV Urbani / Binding of serum 37 to linear peptides of protein X5 of SARS-CoV Urbani / Binding of serum 37 to looped/cyclic peptides of protein X5 of SARS-CoV Urbani / Binding of serum 6 to linear peptides of protein N of SARS-CoV Urbani / Binding of serum 37 to linear peptides of protein N of SARS-CoV Urbani / Binding of serum 6 to linear peptide (PEPSCAN-ELISA) / Binding of serum 1a to looped/cyclic peptides of protein N of SARS-CoV Urbani / Binding of serum 1b to looped/cyclic peptides of protein N of SARS-CoV Urbani / Binding of serum 2 to looped/cyclic peptides of protein N of SARS-CoV Urbani / Binding of serum 6 to looped/cyclic peptides of protein N of SARS-CoV Urbani / Binding of serum 37 to looped/cyclic peptides of protein N of SARS-CoV Urbani / Binding of serum 62 to looped/cyclic peptides of protein N of SARS-CoV Urbani / Binding of serum London to looped/cyclic peptides of protein N of SARS-CoV Urbani / Binding of serum SARS-green to looped/cyclic peptides of protein N of SARS-CoV Urbani: unit not given here
[3] = tested on: rabbit serum obtained by immunizing a rabbit with the SARS-CoV strain Frankfurt 1; format: binding; design: Binding of a rabbit serum to linear peptides / Binding of a rabbit serum to looped peptides / Rabbit serum linear peptides / Rabbit serum looped peptides / Binding of a rabbit serum to linear peptides of protein N of SARS-CoV Urbani (Rabbit serum linear peptides) / Binding of a rabbit serum to looped/cyclic peptides of protein N of SARS-CoV Urbani (Rabbit serum looped peptides): unit not given here

Sequence: TSTHFAFACADGTRH
- Binding of Control Serum Blood-Bank to Looped peptides [1]: 0.8
- Binding of Control serum Blood-bank to linear peptides [1]: 0.7
- Binding of Control serum LUMC to linear peptides [1]: 0.8
- Binding of Control serum LUMC to looped peptides [1]: 0.8
- Binding of serum 1a to linear peptides of protein X4 of SARS-CoV Urbani [2]: 0.7
- Binding of serum 1a to looped/cyclic peptides of protein X4 of SARS-CoV Urbani [2]: 0.8
- Binding of serum 1b to linear peptides of protein X4 of SARS-CoV Urbani [2]: 0.6
- Binding of serum 1b to looped/cyclic peptides of protein X4 of SARS-CoV Urbani [2]: 0.7
- Binding of serum 2 to linear peptides of protein X4 of SARS-CoV Urbani [2]: 0.5
- Binding of serum 2 to looped/cyclic peptides of protein X4 of SARS-CoV Urbani [2]: 0.6
- Binding of serum 6 to linear peptides of protein X4 of SARS-CoV Urbani [2]: 0.7
- Binding of serum 6 to looped/cyclic peptides of protein X4 of SARS-CoV Urbani [2]: 0.7
- Binding of serum 37 to linear peptides of protein X4 of SARS-CoV Urbani [2]: 0.7
- Binding of serum 37 to looped/cyclic peptides of protein X4 of SARS-CoV Urbani [2]: 0.7
- Binding of serum 62 to linear peptides of protein X4 of SARS-CoV Urbani [2]: 0.8
- Binding of serum 62 to looped/cyclic peptides of protein X4 of SARS-CoV Urbani [2]: 0.8
- Binding of serum London to linear peptides of protein X4 of SARS-CoV Urbani [2]: 0.8
- Binding of serum London to looped/cyclic peptides of protein X4 of SARS-CoV Urbani [2]: 0.4
- Binding of serum SARS-green to linear peptides of protein X4 of SARS-CoV Urbani [2]: 0.6
- Binding of serum SARS-green to looped/cyclic peptides of protein X4 of SARS-CoV Urbani [2]: 0.6
- Binding of serum SARS-yellow to linear peptides of protein X4 of SARS-CoV Urbani [2]: 0.2
- Binding of serum SARS-yellow to looped/cyclic peptides of protein X4 of SARS-CoV Urbani [2]: 0.7
- Rabbit serum linear peptides [3]: 0.5
- Rabbit serum looped peptides [3]: 0.7

Sequence: NVPLRGTIVTRPLME
- Binding of Control Serum Blood-Bank to Looped peptides of the protein M of SARS-CoV Urbani [1]: 0.7
- Binding of Control serum Blood-bank to linear peptides of the protein M of SARS-CoV Urbani [1]: 0.6
- Binding of Control serum LUMC to linear peptides of the protein M of SARS-CoV Urbani [1]: 0.4
- Binding of Control serum LUMC to looped peptides of the protein M of SARS-CoV Urbani [1]: 0.9
- Binding of serum 1a to linear peptides of protein M of SARS-CoV Urbani [2]: 0.8
- Binding of serum 1b to linear peptides of protein M of SARS-CoV Urbani [2]: 0.6
- Binding of serum 2 to linear peptides of protein M of SARS-CoV Urbani [2]: 0.4
- Binding of serum 6 to linear peptides of protein M of SARS-CoV Urbani [2]: 0.3
- Binding of serum 37 to linear peptides of protein M of SARS-CoV Urbani [2]: 0.7
- Binding of serum 62 to linear peptides of protein M of SARS-CoV Urbani [2]: 0.8
- Binding of serum London to linear peptides of protein M of SARS-CoV Urbani [2]: 0.3
- Binding of serum SARS-green to linear peptides of protein M of SARS-CoV Urbani [2]: 0.4
- Binding of serum SARS-yellow to linear peptides of protein M of SARS-CoV Urbani [2]: 0.1
- Recognition of the peptide by sera of SARS-CoV infected individuals, and form (linear, looped/cyclic) in which it is recognized [2]: recognized in looped/cyclic form
- Rabbit serum linear peptides [3]: 0.3
- Rabbit serum looped peptides [3]: 0.5

Sequence: MRCWLCWKCKSKNPL
- Binding of Control Serum Blood-Bank to Looped peptides [1]: 0.2
- Binding of Control serum Blood-bank to linear peptides [1]: 0.9
- Binding of Control serum LUMC to linear peptides [1]: 0.8
- Binding of Control serum LUMC to looped peptides [1]: 0.4
- Binding of serum 1a to looped/cyclic peptide (PEPSCAN-ELISA) [2]: 0.2
- Binding of serum 1b to looped/cyclic peptide (PEPSCAN-ELISA) [2]: 0.2
- Binding of serum 2 to looped/cyclic peptide (PEPSCAN-ELISA) [2]: 0.0
- Binding of serum 6 to looped/cyclic peptide (PEPSCAN-ELISA) [2]: 0.1
- Binding of serum 37 to looped/cyclic peptide (PEPSCAN-ELISA) [2]: 0.2
- Binding of serum 62 to looped/cyclic peptide (PEPSCAN-ELISA) [2]: 0.3
- Binding of serum London to looped/cyclic peptide (PEPSCAN-ELISA) [2]: 0.2
- Binding of serum SARS-green to looped/cyclic peptide (PEPSCAN-ELISA) [2]: 0.1
- Binding of serum SARS-yellow to looped/cyclic peptide (PEPSCAN-ELISA) [2]: 0.2
- Recognition of the peptide by sera of SARS-CoV infected individuals, and form (linear, looped/cyclic) in which it is recognized [2]: recognized in linear form
- Binding of a rabbit serum to linear peptides [3]: 0.1
- Binding of a rabbit serum to looped peptides [3]: 0.5
